Biological target: SARS2 coronavirus 3CL protease (Severe acute respiratory syndrome coronavirus 2, UniProt P0DTD1)
Assay: SARS2 Coronavirus 3CL Protease Assay (FRET)
Assay type: biochemical
Details: 5 nM protease pre-incubated with compound 30 minutes; 15 uM peptide substrate; 4 h room temperature; read-out: FRET Potency (nM); IC50 values in the SARS2 3CLPro FRET assay
Procedure: The enzymatic activity of SARS2 coronavirus 3CL protease was determined in a FRET (fluorescence resonance energy transfer)-based assay measuring the cleavage of a peptide substrate by recombinantly expressed and purified enzyme. Cleavage of the peptide SEQ ID NO: 1 (CPC Scientific) by SARS2 3CL protease was measured in reaction buffer (50 mM Hepes pH 7.5, 0.01% Triton X-100, 0.01% BSA, 2 mM DTT). […] Room temperature reactions (4 h) were quenched by addition of a high dose of inhibitor and read on an appropriate plate reader (excitation wavelength=495 nm, emission wavelength=520 nm). Data were analyzed by a standard 4 parameter fit to determine IC50 values.

Structure (SMILES)	IC50 [nM]
CNC(=O)C(=O)[C@H](CCC(C)(F)F)NC(=O)c1cc(F)cnc1NC(=O)C(C)(C)C [Example 43, N-[(1S)-4,4-difluoro-1-[2-(methylamino)-2-oxo-acetyl]pentyl]-2-(2,2-dimethylpropanoylamino)-5-fluoro-pyridine-3-carboxamide]	49.6
CNC(=O)C(=O)[C@H](CCC(C)(F)F)NC(=O)c1cc(Cl)ccc1NC(=O)c1cncc(C#N)c1 [Example 51, N-[4-chloro-2-[[(1S)-4,4-difluoro-1-[2-(methylamino)-2-oxo-acetyl]pentyl]carbamoyl]phenyl]-5-cyano-pyridine-3-carboxamide]	15.1
CNC(=O)C(=O)[C@H](CCC(C)(F)F)NC(=O)c1cc(Cl)ccc1NC(=O)[C@@H]1CCc2nccc(=O)n21 [Example 25, (6S)-N-[4-chloro-2-[[(1S)-4,4-difluoro-1-[2-(methylamino)-2-oxo-acetyl]pentyl]carbamoyl]phenyl]-4-oxo-7,8-dihydro-6H-pyrrolo[1,2-a]pyrimidine-6-carboxamide]	14.8
CNC(=O)C(=O)[C@H](CCC(C)(F)F)NC(=O)c1cc(Cl)ccc1NC(=O)c1cccc(C(F)(F)F)n1 [Example 17, N-[4-chloro-2-[[(1S)-4,4-difluoro-1-[2-(methylamino)-2-oxo-acetyl]pentyl]carbamoyl]phenyl]-6-(trifluoromethyl)pyridine-2-carboxamide]	8.7
CNC(=O)C(=O)[C@H](CCC(C)(F)F)NC(=O)c1cc(Cl)cnc1NC(=O)C12CC(C(F)(F)F)(C1)C2 [Example 2, (S)-5-chloro-N-(6,6-difluoro-1-(methylamino)-1,2-dioxoheptan-3-yl)-2-(3-(trifluoromethyl)bicyclo[1.1.1]pentane-1-carboxamido)nicotinamide]	11.6
CNC(=O)C(=O)[C@H](CCC(C)(F)F)NC(=O)c1cc(C#N)ccc1NC(=O)c1cccc(F)c1 [Example 41, 5-cyano-N-[(1S)-4,4-difluoro-1-[2-(methylamino)-2-oxo-acetyl]pentyl]-2-[(3-fluorobenzoyl)amino]benzamide]	45.3
CNC(=O)C(=O)[C@H](CCC(C)(F)F)NC(=O)c1cc(Cl)ccc1NC(=O)C(C)c1cscn1 (stereo partly drawn) [Example 8, 5-chloro-N-[(1S)-4,4-difluoro-1-[2-(methylamino)-2-oxo-acetyl]pentyl]-2-(2-thiazol-4-ylpropanoylamino)benzamide]	6.6
CNC(=O)C(=O)[C@H](CCC(C)(F)F)NC(=O)c1cc(Cl)ccc1NC(=O)C1CC12CCOCC2 (stereo partly drawn) [Example 26, N-[4-chloro-2-[[(1S)-4,4-difluoro-1-[2-(methylamino)-2-oxo-acetyl]pentyl]carbamoyl]phenyl]-6-oxaspiro[2.5]octane-2-carboxamide]	15.1
CNC(=O)C(=O)[C@H](CCC(C)(F)F)NC(=O)c1cc(Cl)ccc1NC(=O)CCC(F)(F)F [Example 14, 5-chloro-N-[(1S)-4,4-difluoro-1-[2-(methylamino)-2-oxo-acetyl]pentyl]-2-(4,4,4-trifluorobutanoylamino) benzamide]	8.2
CNC(=O)C(=O)[C@H](CCC(C)(F)F)NC(=O)c1cc(Cl)ccc1NC(=O)C1CC1C(F)(F)F (stereo partly drawn) [Example 48, 5-chloro-N-[(1S)-4,4-difluoro-1-[2-(methylamino)-2-oxo-acetyl]pentyl]-2-[[2-(trifluoromethyl)cyclopropane-carbonyl]amino]benzamide]	11.3
CNC(=O)C(=O)[C@H](CCC(C)(F)F)NC(=O)c1cc(Cl)ccc1NC(=O)C(C)C [Example 58, 5-chloro-N-[(1S)-4,4-difluoro-1-[2-(methylamino)-2-oxo-acetyl]pentyl]-2-(2-methylpropanoylamino) benzamide]	6.2
CC(F)(F)CC[C@H](NC(=O)c1cc(Cl)cnc1NC(=O)c1cccc(F)c1)C(=O)C(=O)NC1CC1 [Example 29, 5-chloro-N-[(1S)-1-[2-(cyclopropylamino)-2-oxo-acetyl]-4,4-difluoro-pentyl]-2-[(3-fluorobenzoyl)amino]pyridine-3-carboxamide]	20.4
CNC(=O)C(=O)[C@H](CCC(C)(F)F)NC(=O)c1cc(F)cnc1NC(=O)C12CC(F)(C1)C2 [Example 35, N-[(1S)-4,4-difluoro-1-[2-(methylamino)-2-oxo-acetyl]pentyl]-5-fluoro-2-[(3-fluorobicyclo[1.1.1]pentane-1-carbonyl)amino]pyridine-3-carboxamide]	23.9
CNC(=O)C(=O)[C@H](CCC(C)(F)F)NC(=O)c1cc(Cl)ccc1NC(=O)OC [Example 49, methyl N-[4-chloro-2-[[(1S)-4,4-difluoro-1-[2-(methylamino)-2-oxo-acetyl]pentyl]carbamoyl]phenyl]carbamate]	7.1
CNC(=O)C(=O)[C@H](CCC(C)(F)F)NC(=O)c1cc(Cl)ccc1NC(=O)C1CC(F)(F)C1 [Example 13, 5-chloro-2-[(3,3-difluorocyclobutanecarbonyl)amino]-N-[(1S)-4,4-difluoro-1-[2-(methylamino)-2-oxo-acetyl]pentyl]benzamide]	8
CC(F)(F)CC[C@H](NC(=O)c1cc(Cl)cnc1NC(=O)c1cccc(C(F)(F)F)c1)C(=O)C(=O)NC1CC1 [Example 5, (S)-5-chloro-N-(1-(cyclopropylamino)-6,6-difluoro-1,2-dioxoheptan-3-yl)-2-(3-(trifluoromethyl)benzamido)nicotinamide]	9.2
CNC(=O)C(=O)[C@H](CCC(C)F)NC(=O)c1cc(Cl)ccc1NC(=O)OC (single isomer, unassigned) [Example 6D]	702
CNC(=O)C(=O)[C@H](CCC(C)(F)F)NC(=O)c1cc(Cl)ccc1NC(=O)C1(C(F)(F)F)CC1 [Example 20, 5-chloro-N-[(1S)-4,4-difluoro-1-[2-(methylamino)-2-oxo-acetyl]pentyl]-2-[[1-(trifluoromethyl)cyclopropane-carbonyl]amino]benzamide]	11.6
CNC(=O)C(=O)[C@H](CCC(C)(F)F)NC(=O)c1cc(Cl)ccc1NC(=O)C1CCc2scnc21 (stereo partly drawn) [Example 9, N-[4-chloro-2-[[(1S)-4,4-difluoro-1-[2-(methylamino)-2-oxo-acetyl]pentyl]carbamoyl]phenyl]-5,6-dihydro-4H-cyclopenta[d]thiazole-4-carboxamide]	7
CNC(=O)C(=O)[C@H](CCC(C)(F)F)NC(=O)c1cc(F)ccc1NC(=O)C1(C(F)(F)F)CC1 [Example 42, N-[(1S)-4,4-difluoro-1-[2-(methylamino)-2-oxo-acetyl]pentyl]-5-fluoro-2-[[1-(trifluoromethyl)cyclopropane-carbonyl]amino]benzamide]	47
CC(F)(F)CC[C@H](NC(=O)c1cc(C(F)(F)F)cnc1NC(=O)c1cccc(C(F)(F)F)c1)C(=O)C(=O)NC1CC1 [Example 39, N-[(1S)-1-[2-(cyclopropylamino)-2-oxo-acetyl]-4,4-difluoro-pentyl]-5-(trifluoromethyl)-2-[[3-(trifluoromethyl)benzoyl]amino]pyridine-3-carboxamide]	40.9
CC(F)(F)CC[C@H](NC(=O)c1cc(Cl)cnc1NC(=O)C12CC(C(F)(F)F)(C1)C2)C(=O)C(=O)NC1CC1 [Example 27, 5-chloro-N-[(1S)-1-[2-(cyclopropylamino)-2-oxo-acetyl]-4,4-difluoro-pentyl]-2-[[3-(trifluoromethyl)bicyclo[1.1.1]pentane-1-carbonyl]amino]pyridine-3-carboxamide]	17.4
CC(F)(F)CC[C@H](NC(=O)c1cc(F)cnc1NC(=O)C(C)(C)C)C(=O)C(=O)NC1CC1 [Example 46, N-[(1S)-1-[2-(cyclopropylamino)-2-oxo-acetyl]-4,4-difluoro-pentyl]-2-(2,2-dimethylpropanoylamino)-5-fluoro-pyridine-3-carboxamide]	94.8
CC(F)(F)CC[C@H](NC(=O)c1cc(F)cnc1NC(=O)c1cccc(F)c1)C(=O)C(=O)NC1CC1 [Example 40, N-[(1S)-1-[2-(cyclopropylamino)-2-oxo-acetyl]-4,4-difluoro-pentyl]-5-fluoro-2-[(3-fluorobenzoyl)amino]pyridine-3-carboxamide]	41.6
CNC(=O)C(=O)[C@H](CCC(C)(F)F)NC(=O)c1cc(Cl)ccc1NC(=O)C1CC12CC2 (single isomer, unassigned) [Example 19]	10.5
CNC(=O)C(=O)[C@H](CCC(C)F)NC(=O)c1cc(Cl)ccc1NC(=O)OC (single isomer, unassigned) [Example 6C]	13.6
CNC(=O)C(=O)[C@H](CCC(C)(F)F)NC(=O)c1cc(Cl)ccc1NC(=O)C12CC(C(F)(F)F)(C1)C2 [Example 22, N-[4-chloro-2-[[(1S)-4,4-difluoro-1-[2-(methylamino)-2-oxo-acetyl]pentyl]carbamoyl]phenyl]-3-(trifluoromethyl)bicyclo[1.1.1] pentane-1-carboxamide]	13

Source: patent US20260209180A1, “PROTEASE INHIBITORS FOR TREATING OR PREVENTING CORONAVIRUS INFECTION” (Merck Sharp & Dohme LLC, priority 2023, published 2026)
